The subject of the assay is DA neuron precursor cells. As to the kind of experiment: Differentiation of DA neuron precursor cells into DA neurons with guggulsterone, FACS for TH. The class given is cell-based, human. Conditions: guggulsterone 2.5 μM for two weeks; after 30 days of differentiation. As for the experimental part: The DA neuron precursor cells were plated at 2000 cells/well of a 96-well plate and treated with guggulsterone (GS) at 2.5 μM for two weeks. After 30 days of differentiation, GS-treated neurons appeared mature with elaborate neurite extensions. At this stage, the derived cells expressed not only the major neuronal marker β-III-tubulin (TUJ1), but also the important DA neuron markers tyrosine hydroxylase (TH), the dopamine transporter (Dat), Foxa2, Nurr-1, and Girk2. […] The method specifically involved treating both hESC-H9-NSCs (Invitrogen) and hPSC-NSCs with Purmorphamine (2 μM) and FGF8 (100 ng/mL) in NB medium [NeuroBasal medium, 1× GlutaMAX, 1× N2/B27 Supplement (Invitrogen)] for 7 days. […] Two weeks after treatment with small molecules, all wells were visually observed and scored based on neurite density and dopamine release. For measuring neurite density, cells were fixed with 4% paraformaldehyde and phase contrast images were acquired using Cellavista Cell Imaging System (Roche Applied Science) from randomly selected fields. Neurite density was measured using the Cellavista density software image processing program. Each experimental condition was done in duplicate wells, and at least three independent experiments were conducted to acquire the final results.

In the case of `C/C=C1\C(=O)C[C@H]2[C@@H]3CCC4=CC(=O)CC[C@]4(C)[C@H]3CC[C@]12C` [guggulsterone], the “cells gated TH positive (FACS analysis)” value is given as “more than 97%”.

(Values after US11007232B2, “Use of neural cells derived from human pluripotent stem cells for the treatment of neurodegenerative diseases” (priority 2013, dated 2021).)
